Test results as given in patent publication US20260373266A1, “PROTEIN DEGRADERS AND USES THEREOF” (KYMERA THERAPEUTICS, INC., priority 2022, published 2026).
pKd: −log10 of the molar value.

Target: T1, DCAF1 WD40 domain (residues 1077-1390) (Homo sapiens, UniProt Q9Y4B6)
T1 construct: DCAF1 WD40 domain (residues 1077-1390)
Experiment: DCAF1 binding assay by SPR (Biacore 8K+), DCAF1-3 KD
Details: 25 °C, read-out: DCAF1-3 SPR (KD)

T1 sequence (Q9Y4B6 1077-1390): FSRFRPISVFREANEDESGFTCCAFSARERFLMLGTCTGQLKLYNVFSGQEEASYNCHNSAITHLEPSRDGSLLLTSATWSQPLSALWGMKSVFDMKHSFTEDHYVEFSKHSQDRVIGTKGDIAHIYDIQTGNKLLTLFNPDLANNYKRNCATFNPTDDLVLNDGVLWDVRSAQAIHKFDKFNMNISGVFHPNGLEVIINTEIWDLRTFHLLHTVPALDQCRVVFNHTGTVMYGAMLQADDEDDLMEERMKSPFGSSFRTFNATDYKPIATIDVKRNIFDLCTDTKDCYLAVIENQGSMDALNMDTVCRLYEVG

Structure (SMILES) | pKd
CCCCCCC[C@@H]1CCCN(c2ccnc(N3CC[C@@H]4[C@H]3CCCN4c3cccc(F)c3)c2)C1 [I-726] | < 3.70
NCCOCCOCCOCCOCCC1CCN(c2ccnc(N3CC[C@@H]4[C@H]3CCCN4c3cccc(F)c3)c2)CC1 [I-650] | < 3.70
COc1cc(N2CCC[C@@H](Nc3cc(N4CCOCC4)ccn3)C2)cnc1CO [I-854] | 4.00 to 5.00
c1cc(N2CCC[C@@H](Nc3cc(N4CCOCC4)ncn3)C2)ccn1 [I-6] | < 3.70
OC[C@@]1(Nc2cc(N3CCOCC3)ccn2)CCCN(c2cccc(F)c2)C1 [I-276] | < 3.70
COCCN(c1cc(N2CCOCC2)ccn1)[C@@H]1CCCN(c2cccc(F)c2)C1 [I-76] | 4.00 to 5.00
C=CC(=O)NCCCN1CCN(c2ccnc3c2CCN3C2CCCN(c3cccc(F)c3)C2)CC1 (stereo not drawn) [I-845] | 4.00 to 5.00
COc1ccc(N2CCC[C@@H](Nc3cncc(N4CCOCC4)c3)C2)cc1 [I-551] | < 3.70
OCc1cnc(N2CCOCC2)cc1N[C@@H]1CCCN(c2cccc(F)c2)C1 [I-410] | < 3.70
CN1CCN(CCC2CCN(c3ccnc(N4CC[C@@H]5[C@H]4CCCN5c4cccc(F)c4)c3)CC2)CC1 [I-816] | > 5.00
CC(=O)N1CCN(c2ccnc(N3CC[C@@H]4[C@H]3CCCN4c3cccc(F)c3)c2)CC1 [I-948] | 4.00 to 5.00
c1cc(N2CCCCC2)cc(N[C@H]2CCC[C@H](C3CCCCC3)C2)n1 [I-750] | < 3.70
O=C1Cc2cnc(N3CCC[C@@H](Nc4cc(N5CCOCC5)ccn4)C3)cc2N1 [I-434] | < 3.70
OCCC[C@H]1C[C@@H]2[C@H](CCCN2c2cccc(F)c2)N1c1cc(N2CCCCC2)ccn1 [I-826] | 4.00 to 5.00
c1ccc2c(N3CCC[C@@H](Nc4cncc(N5CCOCC5)c4)C3)cncc2c1 [I-365] | > 5.00
CN1CCN(c2ccc(N3CCC[C@@H](Nc4cc(N5CCOCC5)ccn4)C3)nc2)CC1 [I-686] | < 3.70
Fc1cccc(N2CCC[C@@H](N3CCc4c(N5CC6CC(C6)C5)ccnc43)C2)c1 [I-841] | > 5.00
OCCC[C@@H]1C[C@H]2[C@@H](CCCN2c2cccc(F)c2)N1c1cc(N2CCCCC2)ccn1 [I-831] | 4.00 to 5.00

Structure (SMILES) | pKd
COc1ccccc1N1CCC[C@@H](Nc2cc(N3CCOCC3)ncn2)C1 [I-15] | < 3.70
O=CNc1ccc(N2CCC[C@H]3[C@@H]2CCN3c2cc(N3CCCCC3)ccn2)cc1F [I-762] | < 3.70
Fc1cccc(N2CCC[C@@H](Nc3cc([C@H]4CCCCN4)ccn3)C2)c1 [I-126] | < 3.70
Fc1cccc(N2CCC[C@@H](Nc3ncc(N4CCOCC4)o3)C2)c1 [I-327] | < 3.70
c1cc(N2CCOCC2)cc(N[C@@H]2CCCN(c3cnn[nH]3)C2)n1 [I-534] | < 3.70
OCCC[C@H]1C[C@H]2[C@H](CCCN2c2cccc(F)c2)N1c1cc(N2CCCCC2)ccn1 [I-835] | < 3.70
Fc1cccc(N2CCCC(Nc3nccc(N4CCCCC4)n3)C2)c1 (stereo not drawn) [I-27] | 3.70 to 4.00
Fc1cccc([C@H]2CCC[C@@H](Nc3cc(N4CCOCC4)ccn3)C2)c1 [I-180] | < 3.70
Cc1sc2c(c1C)C(c1ccc(Cl)cc1)=N[C@@H](CC(=O)NCCCCCCCCCCCCCCCCCC1CCN(c3ccnc(N4CC[C@@H]5[C@H]4CCCN5c4cccc(F)c4)c3)CC1)c1nnc(C)n1-2 [I-901] | < 3.70
c1ccc(-c2cc(N3CCC[C@@H](Nc4cc(N5CCOCC5)ccn4)C3)ccn2)nc1 [I-437] | 4.00 to 5.00
c1cn(Cc2ccc(N3CCC[C@@H](Nc4cc(N5CCOCC5)ccn4)C3)cc2)cn1 [I-692] | 3.70 to 4.00
C=CC(=O)NC1CCC2(CC1)CCN(c1ccnc(N[C@@H]3CCCN(c4cccc(F)c4)C3)c1)CC2 [I-657] | > 5.00
c1cc(N2CCOCC2)cc(N[C@@H]2CCCN(c3ccc4c(c3)CCC4)C2)n1 [I-872] | < 3.70
Fc1cccc(N2CCC[C@@H](Nc3cc(N4CCOCC4)ncc3Cl)C2)c1 [I-406] | < 3.70
c1csc(-c2ccc(N3CCC[C@@H](Nc4cc(N5CCOCC5)ccn4)C3)cc2)c1 [I-695] | 4.00 to 5.00
Fc1cccc([C@H]2CCC[C@@H](Nc3nccc(N4CCOCC4)n3)C2)c1 [I-181] | < 3.70
c1cc2cc(N3CCC[C@@H](Nc4cc(N5CCOCC5)ncn4)C3)ccc2cn1 [I-401] | < 3.70

More lines, now with the values ahead:

pKd | Structure (SMILES)
> 5.00 | NC(=O)C[C@H](NC(=O)c1cn[nH]c1Cc1ccccc1)c1cccc(Cl)c1 [I-543]
4.00 to 5.00 | Cc1ccc([C@H](CC(N)=O)NC(=O)c2cn[nH]c2-c2ccccc2F)cc1 [I-101]
< 3.70 | Cn1ncc(C(=O)N[C@@H](CC(N)=O)c2cccc(Cl)c2)c1-c1ccccc1F [I-172]
4.00 to 5.00 | NC(=O)CC1(NC(=O)c2cn[nH]c2-c2ccccc2F)CCc2ccc(Cl)cc21 (stereo not drawn) [I-607]
3.70 to 4.00 | CCc1cccc([C@@H](CC(N)=O)NC(=O)c2cn[nH]c2-c2ccccc2F)c1 [I-639]
> 5.00 | Cc1cccc(C(=O)c2[nH]cc(C(=O)N[C@@H](CC(N)=O)c3cccc(Cl)c3)c2-c2c(C)cccc2F)c1 [I-627]
> 5.00 | Cc1c(F)ccc(F)c1-c1[nH]ncc1C(=O)N[C@@H](CC(N)=O)c1cccc(Cl)c1 [I-601]
4.00 to 5.00 | NC(=O)C[C@H](NC(=O)c1ccc(N)nc1-c1ccccc1F)c1cccc(Cl)c1 [I-588]
4.00 to 5.00 | CC(C)c1cccc(-c2[nH]ncc2C(=O)N[C@@H](CC(N)=O)c2cccc(Cl)c2)c1F [I-563]
> 5.00 | COc1cccc(C(=O)c2[nH]cc(C(=O)N[C@@H](CC(N)=O)c3cccc(Cl)c3)c2-c2c(F)ccc(F)c2C)c1 [I-795]
< 3.70 | Cc1sc2c(c1C)C(c1ccc(Cl)cc1)=N[C@@H](CC(=O)NCCCCCCCCCCCCCCCCCC(=O)c1[nH]cc(C(=O)N[C@@H](CC(N)=O)c3cccc(Cl)c3)c1-c1ccccc1F)c1nnc(C)n1-2 [I-893]
4.00 to 5.00 | NC(=O)C[C@H](NC(=O)c1cn[nH]c1-c1ccccc1C(N)=O)c1cccc(Cl)c1 [I-349]
> 5.00 | Cc1cccc(F)c1-c1c(C(=O)N[C@@H](CC(N)=O)c2cccc(Cl)c2)c[nH]c1C(=O)Cc1ccccc1 [I-622]
< 3.70 | CCCCN1CCN(c2ccnc(N[C@@H]3CCCN(c4cccc(F)c4)C3)c2)CC1 [I-318]
< 3.70 | NC(=O)C[C@H](NC(=O)c1cn[nH]c1-c1ccccc1F)c1cnsc1 [I-187]
< 3.70 | NC(=O)C[C@@]1(NC(=O)c2c[nH]nc2-c2ccccc2F)CCc2c(Cl)cccc21 [I-205]
< 3.70 | c1ccc2c(N3CCC[C@@H](Nc4cc(N5CCOCC5)ncn4)C3)cccc2c1 [I-388]
> 5.00 | Cc1ccc(-c2[nH]ncc2C(=O)N[C@@H](CC(N)=O)c2cccc(Cl)c2)cc1 [I-103]
< 3.70 | C=CC(=O)NC#Cc1n[nH]cc1C(=O)N[C@@H](CC(N)=O)c1cccc(Cl)c1 [I-473]
> 5.00 | Cc1cccc(F)c1-c1c(C(=O)N[C@@H](CC(N)=O)c2cccc(Cl)c2)c[nH]c1Nc1cc(N2CCCCC2)ccn1 [I-744]
< 3.70 | C=CC(=O)n1cc(-c2n[nH]cc2C(=O)N[C@@H](CC(N)=O)c2cccc(Cl)c2)cn1 [I-472]
4.00 to 5.00 | COCCOCC[C@H]1CCCN(c2ccnc(N3CC[C@@H]4[C@H]3CCCN4c3cccc(F)c3)c2)C1 [I-713]
> 5.00 | Cc1cccc(F)c1-c1c(C(=O)N[C@@H](CC(N)=O)c2cccc(Cl)c2)c[nH]c1C(=O)c1ccc(N2CCCCC2)cc1 [I-801]
4.00 to 5.00 | NC(=O)C[C@H](NC(=O)c1cn[nH]c1C1=CCOCC1)c1cccc(Cl)c1 [I-496]
4.00 to 5.00 | Cc1cccc(-c2[nH]ncc2C(=O)N[C@@H](CC(N)=O)c2cccc(Cl)c2)c1 [I-102]
